For the assay, the target named is Protein cereblon/Bromodomain-containing protein 9 (Homo sapiens, UniProt Q9H8M2+Q96SW2). Kind of assay: Induction of CRBN-mediated GFP-fused BRD9 (unknown origin) degradation expressed in HEK293-A cells incubated for 24 hrs by flow cytometric analysis. It is filed as cell-based. A general note: Flow cytometry measures light scatter and fluorescence of single cells or particles in a stream.

Results on 6 molecules are retold here after ChEMBL document CHEMBL4840381, “BRD9 Bifunctional Degraders for Treating Cancer” (ACS Med Chem Lett, 2021).

Protein cereblon/Bromodomain-containing protein 9, sequence (Q9H8M2 whole entry, the tested form may be a part): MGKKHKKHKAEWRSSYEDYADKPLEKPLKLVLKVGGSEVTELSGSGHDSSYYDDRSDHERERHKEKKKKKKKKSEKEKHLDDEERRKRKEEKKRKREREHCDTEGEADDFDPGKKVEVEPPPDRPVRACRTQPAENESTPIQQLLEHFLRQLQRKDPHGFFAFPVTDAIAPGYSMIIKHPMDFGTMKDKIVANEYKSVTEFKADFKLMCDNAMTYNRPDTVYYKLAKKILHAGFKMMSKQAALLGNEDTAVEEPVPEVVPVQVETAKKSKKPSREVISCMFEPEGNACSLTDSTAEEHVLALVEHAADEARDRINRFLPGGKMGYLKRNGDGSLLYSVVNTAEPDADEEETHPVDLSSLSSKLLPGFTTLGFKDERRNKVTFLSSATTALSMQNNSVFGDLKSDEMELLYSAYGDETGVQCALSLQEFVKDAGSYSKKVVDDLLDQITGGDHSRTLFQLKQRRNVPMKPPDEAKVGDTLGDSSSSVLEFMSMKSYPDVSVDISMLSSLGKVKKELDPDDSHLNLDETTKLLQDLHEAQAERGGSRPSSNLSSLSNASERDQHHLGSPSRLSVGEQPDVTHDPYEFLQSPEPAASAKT
Protein cereblon/Bromodomain-containing protein 9, sequence (Q96SW2 whole entry, the tested form may be a part): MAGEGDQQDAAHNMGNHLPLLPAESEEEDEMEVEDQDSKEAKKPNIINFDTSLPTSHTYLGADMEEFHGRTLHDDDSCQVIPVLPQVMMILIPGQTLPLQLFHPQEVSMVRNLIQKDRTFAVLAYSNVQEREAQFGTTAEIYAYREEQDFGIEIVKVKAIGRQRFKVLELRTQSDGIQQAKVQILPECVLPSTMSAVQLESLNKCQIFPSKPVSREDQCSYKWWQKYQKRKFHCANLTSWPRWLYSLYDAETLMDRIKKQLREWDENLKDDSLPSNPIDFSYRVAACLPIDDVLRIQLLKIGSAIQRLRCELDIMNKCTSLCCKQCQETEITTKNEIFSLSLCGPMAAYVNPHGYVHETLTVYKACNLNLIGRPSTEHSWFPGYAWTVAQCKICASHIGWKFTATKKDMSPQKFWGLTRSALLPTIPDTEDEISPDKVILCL

With `CCCCn1cc(-c2ccc(O[C@H]3CCN(CC4CCN(C(=O)c5ccc(OC)c(N6CCC(=O)NC6=O)c5)CC4)C[C@@H]3F)c(OC)c2)c2ccncc2c1=O`, the DC50 (in general, the midpoint of the concentration-degradation curve) worked out at 1 nM.

Take `CCCCn1cc(-c2cc(F)c(O[C@H]3CCN(CC4CCN(C(=O)c5ccc(OC)c(N6CCC(=O)NC6=O)c5)CC4)C[C@@H]3F)c(F)c2)c2ccncc2c1=O`: the DC50 is 1 nM.

Molecule `COc1cc(-c2cn(C)c(=O)c3cnccc23)cc(OC)c1CCN1CCC(OC2CCN(C(=O)c3ccc(Cl)c(N4CCC(=O)NC4=O)c3)CC2)CC1` gave a 50% degradation concentration (DC50) of 1 nM. In other words, the single-digit nanomolar range.

`CCCCn1cc(-c2cc(OC)c(OC3CCN(CC4CCN(C(=O)c5ccc(Cl)c(N6CCC(=O)NC6=O)c5)CC4)CC3)c(OC)c2)c2ccncc2c1=O` came in with a DC50 of 1 nM.

For `COc1cc(-c2cn(C)c(=O)c(C)c2C)cc(OC)c1CCN1CCC(OC2CCN(C(=O)c3ccc(Cl)c(N4CCC(=O)NC4=O)c3)CC2)CC1`, the DC50 stood at 1 nM.

In the case of `CCCCn1cc(-c2ccc(OC3CCN(CC4CCN(C(=O)c5ccc(Cl)c(N6CCC(=O)NC6=O)c5)CC4)CC3)c(OC)c2)c2ccncc2c1=O`, the half-maximal degradation concentration (DC50) was 1 nM. This lies in the single-digit nanomolar range.
